Test results as given in PubChem BioAssay (NCI).
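Values below derive from 48-hour exposures of cells grown in 96-well plates, with endpoints linearly interpolated between the two concentrations bracketing the appropriate inhibition level. Here, GI50 denotes the concentration required for 50% inhibition of growth. TGI: total growth inhibition.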

What was measured:
Test in all cases: NCI tumour cell line growth inhibition, 48 h
KM20L2 colon = test system: KM20L2 colon
HCT-15 colon = test system: HCT-15 colon
SNB-78 CNS = test system: SNB-78 CNS
OVCAR-5 ovarian = test system: OVCAR-5 ovarian
SK-OV-3 ovarian = test system: SK-OV-3 ovarian
COLO 205 colon = test system: COLO 205 colon
HCT-116 colon = test system: HCT-116 colon
KM12 colon = test system: KM12 colon
SF-539 CNS = test system: SF-539 CNS
IGROV1 ovarian = test system: IGROV1 ovarian
A498 renal = test system: A498 renal
LXFL 529 NSCLC = test system: LXFL 529 NSCLC
HOP-18 NSCLC = test system: HOP-18 NSCLC
LOX IMVI melanoma = test system: LOX IMVI melanoma
UO-31 renal = test system: UO-31 renal
A549 NSCLC = test system: A549 NSCLC
HT29 colon = test system: HT29 colon
SF-295 CNS = test system: SF-295 CNS
DMS 114 small cell lung = test system: DMS 114 small cell lung
K-562 leukemia = test system: K-562 leukemia
RPMI-8226 leukemia = test system: RPMI-8226 leukemia
MOLT-4 leukemia = test system: MOLT-4 leukemia
NCI-H226 lung = test system: NCI-H226 lung
NCI-H522 lung = test system: NCI-H522 lung
EKVX NSCLC = test system: EKVX NSCLC
NCI-H23 lung = test system: NCI-H23 lung
HCC-2998 colon = test system: HCC-2998 colon
UACC-62 melanoma = test system: UACC-62 melanoma
SN12C renal = test system: SN12C renal
SW-620 colon = test system: SW-620 colon
CAKI-1 renal = test system: CAKI-1 renal
SNB-75 CNS = test system: SNB-75 CNS
DMS 273 small cell lung = test system: DMS 273 small cell lung
SNB-19 CNS = test system: SNB-19 CNS
MALME-3M melanoma = test system: MALME-3M melanoma
SF-268 CNS = test system: SF-268 CNS
HL-60(TB) leukemia = test system: HL-60(TB) leukemia
ACHN renal = test system: ACHN renal
UACC-257 melanoma = test system: UACC-257 melanoma
HOP-62 NSCLC = test system: HOP-62 NSCLC
TK-10 renal = test system: TK-10 renal
M14 melanoma = test system: M14 melanoma
M19-MEL melanoma = test system: M19-MEL melanoma
OVCAR-8 ovarian = test system: OVCAR-8 ovarian
786-0 renal = test system: 786-0 renal
OVCAR-3 ovarian = test system: OVCAR-3 ovarian
CCRF-CEM leukemia = test system: CCRF-CEM leukemia
SK-MEL-5 melanoma = test system: SK-MEL-5 melanoma
SK-MEL-2 melanoma = test system: SK-MEL-2 melanoma
SK-MEL-28 melanoma = test system: SK-MEL-28 melanoma
OVCAR-4 ovarian = test system: OVCAR-4 ovarian
DLD-1 colon = test system: DLD-1 colon

Structure (SMILES): CC[O-].CC[O-].O=S(=O)([O-])c1ccc([O-])c2ncccc12.O=S(=O)([O-])c1ccc([O-])c2ncccc12.[Ti+4]
- GI50 (KM20L2 colon): 39.7 µM
- TGI (KM20L2 colon): > 100 µM
- GI50 (HCT-15 colon): > 100 µM
- TGI (HCT-15 colon): > 100 µM
- GI50 (SNB-78 CNS): > 100 µM
- TGI (SNB-78 CNS): > 100 µM
- GI50 (OVCAR-5 ovarian): 33.5 µM
- TGI (OVCAR-5 ovarian): > 100 µM
- GI50 (SK-OV-3 ovarian): > 100 µM
- TGI (SK-OV-3 ovarian): > 100 µM
- GI50 (COLO 205 colon): 83.2 µM
- TGI (COLO 205 colon): > 100 µM
- GI50 (HCT-116 colon): 41.1 µM
- TGI (HCT-116 colon): > 100 µM
- GI50 (KM12 colon): 96.5 µM
- TGI (KM12 colon): > 100 µM
- GI50 (SF-539 CNS): 67.9 µM
- TGI (SF-539 CNS): > 100 µM
- GI50 (IGROV1 ovarian): > 100 µM
- TGI (IGROV1 ovarian): > 100 µM
- GI50 (A498 renal): > 100 µM
- TGI (A498 renal): > 100 µM
- GI50 (LXFL 529 NSCLC): 39.6 µM
- TGI (LXFL 529 NSCLC): > 100 µM
- GI50 (HOP-18 NSCLC): > 100 µM
- TGI (HOP-18 NSCLC): > 100 µM
- GI50 (LOX IMVI melanoma): 28.3 µM
- TGI (LOX IMVI melanoma): > 100 µM
- GI50 (UO-31 renal): 74.4 µM
- TGI (UO-31 renal): > 100 µM
- GI50 (A549 NSCLC): 39.1 µM
- TGI (A549 NSCLC): > 100 µM
- GI50 (HT29 colon): 52.8 µM
- TGI (HT29 colon): > 100 µM
- GI50 (SF-295 CNS): > 100 µM
- TGI (SF-295 CNS): > 100 µM
- GI50 (DMS 114 small cell lung): 74.7 µM
- TGI (DMS 114 small cell lung): > 100 µM
- GI50 (K-562 leukemia): > 100 µM
- TGI (K-562 leukemia): > 100 µM
- GI50 (RPMI-8226 leukemia): > 100 µM
- TGI (RPMI-8226 leukemia): > 100 µM
- GI50 (MOLT-4 leukemia): 37.2 µM
- TGI (MOLT-4 leukemia): > 100 µM
- GI50 (NCI-H226 lung): > 100 µM
- TGI (NCI-H226 lung): > 100 µM
- GI50 (NCI-H522 lung): 32.8 µM
- TGI (NCI-H522 lung): > 100 µM
- GI50 (EKVX NSCLC): > 100 µM
- TGI (EKVX NSCLC): > 100 µM
- GI50 (NCI-H23 lung): > 100 µM
- TGI (NCI-H23 lung): > 100 µM
- GI50 (HCC-2998 colon): 68.2 µM
- TGI (HCC-2998 colon): > 100 µM
- GI50 (UACC-62 melanoma): 66.2 µM
- TGI (UACC-62 melanoma): > 100 µM
- GI50 (SN12C renal): > 100 µM
- TGI (SN12C renal): > 100 µM
- GI50 (SW-620 colon): > 100 µM
- TGI (SW-620 colon): > 100 µM
- GI50 (CAKI-1 renal): > 100 µM
- TGI (CAKI-1 renal): > 100 µM
- GI50 (SNB-75 CNS): 72.8 µM
- TGI (SNB-75 CNS): > 100 µM
- GI50 (DMS 273 small cell lung): 78.1 µM
- TGI (DMS 273 small cell lung): > 100 µM
- GI50 (SNB-19 CNS): 58.3 µM
- TGI (SNB-19 CNS): > 100 µM
- GI50 (MALME-3M melanoma): > 100 µM
- TGI (MALME-3M melanoma): > 100 µM
- GI50 (SF-268 CNS): 42.1 µM
- TGI (SF-268 CNS): > 100 µM
- GI50 (HL-60(TB) leukemia): 40.9 µM
- TGI (HL-60(TB) leukemia): > 100 µM
- GI50 (ACHN renal): 59.1 µM
- TGI (ACHN renal): > 100 µM
- GI50 (UACC-257 melanoma): 43.7 µM
- TGI (UACC-257 melanoma): > 100 µM
- GI50 (HOP-62 NSCLC): 44 µM
- TGI (HOP-62 NSCLC): > 100 µM
- GI50 (TK-10 renal): > 100 µM
- TGI (TK-10 renal): > 100 µM
- GI50 (M14 melanoma): 63.8 µM
- TGI (M14 melanoma): > 100 µM
- GI50 (M19-MEL melanoma): > 100 µM
- TGI (M19-MEL melanoma): > 100 µM
- GI50 (OVCAR-8 ovarian): 74.5 µM
- TGI (OVCAR-8 ovarian): > 100 µM
- GI50 (786-0 renal): 49 µM
- TGI (786-0 renal): > 100 µM
- GI50 (OVCAR-3 ovarian): 47.6 µM
- TGI (OVCAR-3 ovarian): > 100 µM
- GI50 (CCRF-CEM leukemia): 53.3 µM
- TGI (CCRF-CEM leukemia): > 100 µM
- GI50 (SK-MEL-5 melanoma): > 100 µM
- TGI (SK-MEL-5 melanoma): > 100 µM
- GI50 (SK-MEL-2 melanoma): > 100 µM
- TGI (SK-MEL-2 melanoma): > 100 µM
- GI50 (SK-MEL-28 melanoma): > 100 µM
- TGI (SK-MEL-28 melanoma): > 100 µM
- GI50 (OVCAR-4 ovarian): 52.9 µM
- TGI (OVCAR-4 ovarian): > 100 µM
- GI50 (DLD-1 colon): 91.1 µM
- TGI (DLD-1 colon): > 100 µM
